What was measured:
[1] = target: T1, recombinant human 5-HT5A receptor (Homo sapiens, UniProt P47898); assay: [3H]LSD radioligand binding assay, membranes of HEK-EBNA cells transiently expressing 5-HT5A receptors; conditions: [3H]LSD approx. 1 nM, SPA beads, 120 min at room temperature; Ki from IC50 by Cheng-Prussoff equation
T1 construct: expressed in transfected cells; host or cells: HEK-EBNA (Human Embryonic Kidney-EBNA) cells, transient cDNA expression, membranes
Procedure: A [^3H]LSD radioligand binding assay was used to determine the affinity of the compounds for the recombinant human 5-HT5A receptor, in membranes from transiently (cDNA) expressed 5-HT5A receptors in Human Embryonic Kidney-EBNA (HEK-EBNA) cells. Assay buffer consisted of Tris (50 mM) buffer containing 1 mM EGTA, 10 mM MgCl2 (pH 7.4) and 10 μM pargyline. The binding assay was carried out in 96-well-plates in the presence of [^3H]LSD (approximately 1 nM), approximately 2 μg/well of membrane protein, and 0.5 mg of Ysi-poly-1-lysine SPA beads in a final volume of 200 μl of buffer. Non-specific binding was defined using methiothepin 2 μM. Compounds were tested at 10 concentrations. All assays were conducted in duplicate and repeated at least two times. Assay plates were incubated for 120 min at room temperature before centrifugation. Bound ligand was determined using a Packard Topcount scintillation counter. IC50 values were calculated using a non-linear curve fitting program and Ki values calculated using the Cheng-Prussoff equation.

T1 sequence (P47898 whole entry): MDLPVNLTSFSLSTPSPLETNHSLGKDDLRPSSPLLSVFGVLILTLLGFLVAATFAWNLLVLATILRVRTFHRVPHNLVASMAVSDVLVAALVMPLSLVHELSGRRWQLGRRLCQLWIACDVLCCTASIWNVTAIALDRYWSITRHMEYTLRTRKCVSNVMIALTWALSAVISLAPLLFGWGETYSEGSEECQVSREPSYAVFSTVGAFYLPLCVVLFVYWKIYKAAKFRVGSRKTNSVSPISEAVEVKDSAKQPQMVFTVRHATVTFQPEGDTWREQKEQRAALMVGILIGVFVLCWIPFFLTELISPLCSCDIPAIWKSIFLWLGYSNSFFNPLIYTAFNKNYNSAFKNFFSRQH

SMILES	Ki [1] [nM]	melting point [°C]
O=C(c1cccs1)c1cccc2nc(N[C@@H]3CCc4ccccc43)ccc12 [Example 102, [2-((R)-Indan-1-ylamino)-quinolin-5-yl]-thiophen-2-yl-methanone]	33.4	176
ON=C(c1ccc(CN2CCOCC2)cc1)c1cccc2nc(N[C@@H]3CCc4ccccc43)ccc12 [Example 105, [2-((R)-Indan-1-ylamino)-quinolin-5-yl]-(4-morpholin-4-ylmethyl-phenyl)-methanone oxime]	23.2	167
O=C(NCc1cccc2nc(N[C@@H]3CCc4ccccc43)ccc12)c1ccc(F)cc1 [Example 80, 4-Fluoro-N-[2-((R)-indan-1-ylamino)-quinolin-5-ylmethyl]-benzamide]	34.4	145
ON=C(c1ccc(Cl)cc1)c1cccc2nc(N[C@@H]3CCc4ccccc43)ccc12 [Example 92, (4-Chloro-phenyl)-[2-((R)-indan-1-ylamino)-quinolin-5-yl]-methanone oxime]	5.48	194
ON=C(c1cccs1)c1cccc2nc(N[C@@H]3CCc4ccccc43)ccc12 [Example 104, [2-((R)-Indan-1-ylamino)-quinolin-5-yl]-thiophen-2-yl-methanone oxime]	3.64	194
ON=C(c1cc(F)cc(F)c1)c1cccc2nc(N[C@@H]3CCc4ccccc43)ccc12 [Example 101, (3,5-Difluoro-phenyl)-[2-((R)-indan-1-ylamino)-quinolin-5-yl]-methanone oxime]	7.7	120.5
COc1ccc(C(=NO)c2cccc3nc(N[C@@H]4CCc5ccccc54)ccc23)cc1 [Example 95, [2-((R)-Indan-1-ylamino)-(4-methoxy-phenyl)-quinolin-5-yl]-methanone oxime]	4.11	
COc1ccc2c(c1)C(Nc1ccc3c(NS(=O)(=O)c4ccc(F)cc4)cccc3n1)CC2 (racemic) [Example 21, rac-4-Fluoro-N-[2-(6-methoxy-indan-1-ylamino)-quinolin-5-yl]-benzenesulfonamide]	15.8	
c1ccc2c(c1)CC[C@H]2Nc1ccc2c(Nc3cccc4cc[nH]c34)cccc2n1 [Example 69, N2-(R)-Indan-1-yl-N5-(1H-indol-7-yl)-quinoline-2,5-diamine]	5.61	
O=S(=O)(Nc1ccc(F)cc1)Nc1cccc2nc(N[C@@H]3CCc4ccccc43)ccc12 [Example 86, N-{2-[(1R)-2,3-dihydro-1H-inden-1-ylamino]quinolin-5-yl}-N′-(4-fluorophenyl)sulfamide]	10	
COc1ccc2c(c1)C(Nc1ccc3c(NS(=O)(=O)c4ccc(F)cc4)cccc3n1)CC2 (single isomer, unassigned; (+)) [Example 33, (+)-4-Fluoro-N-[2-(6-methoxy-indan-1-ylamino)-quinolin-5-yl]-benzenesulfonamide]	12	
O=S(=O)(Nc1cccc2nc(NC3COc4ccccc43)ccc12)c1cc(F)cc(F)c1 (single isomer, unassigned; (+)) [Example 41, (+)-N-{2-[(2,3-Dihydro-benzofuran-3-yl)amino]-quinolin-5-yl}-3,5-difluoro-benzenesulfonamide]	22.9	
c1ccc2c(c1)CC[C@H]2Nc1ccc2c(Nc3ccc4cc[nH]c4c3)cccc2n1 [Example 73, N2-(R)-Indan-1-yl-N5-(1H-indol-6-yl)-quinoline-2,5-diamine]	4.7	
Fc1ccc(Oc2cccc3nc(N[C@@H]4CCc5ccccc54)ccc23)cc1 [Example 9, [5-(4-Fluoro-phenoxy)-quinolin-2-yl]-(R)-indan-1-yl-amine]	90.9	
c1cncc(-c2cccc3nc(N[C@@H]4CCc5ccccc54)ccc23)c1 [Example 66, (R)-Indan-1-yl-(5-pyridin-3-yl-quinolin-2-yl)-amine]	320	
N=C(c1ccc(F)cc1)c1cccc2nc(N[C@@H]3CCc4ccccc43)ccc12 [Example 82, {5-[(4-Fluoro-phenyl)-imino-methyl]-quinolin-2-yl}-(R)-indan-1-yl-amine]	7.82	
c1cncc(COc2cccc3nc(N[C@@H]4CCc5ccccc54)ccc23)c1 [Example 4, (R)-Indan-1-yl-[5-(pyridin-3-ylmethoxy)-quinolin-2-yl]-amine]	37.3	
O=C(c1cccc(F)c1)c1cccc2nc(N[C@@H]3CCc4ccccc43)ccc12 [Example 94, (3-Fluoro-phenyl)-[2-((R)-indan-1-ylamino)-quinolin-5-yl]-methanone]	117	
Fc1cc(F)cc(CNc2cccc3nc(NC4COc5ccccc54)ccc23)c1 (single isomer, unassigned; (+)) [Example 32, (+)-N5-(3,5-Difluoro-benzyl)-2,3-dihydro-benzofuran-3-yl-quinoline-2,5-diamine]	12.7	

SMILES	Ki [1] [nM]	melting point [°C]
COc1cccc2c1C(Nc1ccc3c(NS(=O)(=O)c4ccc(F)cc4)cccc3n1)CC2 (racemic) [Example 28, rac-4-Fluoro-N-[2-(7-methoxy-indan-1-ylamino)-quinolin-5-yl]-benzenesulfonamide]	4.23	
c1ccc2c(c1)CC[C@H]2Nc1ccc2c(Nc3ccc4[nH]ccc4c3)cccc2n1 [Example 72, N2-(R)-Indan-1-yl-N5-(1H-indol-5-yl)-quinoline-2,5-diamine]	6	
c1ccc(-c2cccc3nc(N[C@@H]4CCc5ccccc54)ccc23)cc1 [Example 63, (R)-Indan-1-yl-(5-phenyl-quinolin-2-yl)-amine]	229	
COc1cccc2c1C(Nc1ccc3c(NCc4cccc5[nH]ccc45)cccc3n1)CCC2 (racemic) [Example 70, Rac-N5-(1H-Indol-4-ylmethyl)-N2-(8-methoxy-1,2,3,4-tetrahydro-naphthalen-1-yl)-quinoline-2,5-diamine]	15.9	
COc1cccc2c1C(Nc1ccc3c(NCc4cnc[nH]4)cccc3n1)CCC2 (racemic) [Example 67, Rac-N5-(3H-Imidazol-4-ylmethyl)-N2-(8-methoxy-1,2,3,4-tetrahydro-naphthalen-1-yl)-quinoline-2,5-diamine]	10.5	
O=C(c1ccc(F)cc1)c1cccc2nc(N[C@@H]3CCc4ccccc43)ccc12 [Example 83, (4-Fluoro-phenyl)-[2-((R)-indan-1-ylamino)-quinolin-5-yl]-methanone]	11.5	
CON=C(c1ccc(C)cc1)c1cccc2nc(N[C@@H]3CCc4ccccc43)ccc12 [Example 98, [2-((R)-Indan-1-ylamino)-(4-methyl-phenyl)-quinolin-5-yl]-methanone O-methyl-oxime]	49.8	
c1ccc2c(c1)CC[C@H]2Nc1ccc2c(NCc3cnc[nH]3)cccc2n1 [Example 43, N5-(3H-Imidazol-4-ylmethyl)-N2-(R)-indan-1-yl-quinoline-2,5-diamine]	6.45	
Fc1cc(F)cc(CNc2cccc3nc(N[C@@H]4CCc5ccccc54)ccc23)c1 [Example 6, N5-(3,5-Difluoro-benzyl)-N2-(R)-indan-1-yl-quinoline-2,5-diamine]	1.85	
Fc1ccc(Nc2cccc3nc(N[C@@H]4CCc5ccccc54)ccc23)cc1 [Example 77, N5-(4-Fluoro-phenyl)-N2-(R)-indan-1-yl-quinoline-2,5-diamine]	6.38	
CN(c1cccc2nc(N[C@@H]3CCc4ccccc43)ccc12)S(=O)(=O)c1ccc(F)cc1 [Example 8, 4-Fluoro-N-[2-((R)-indan-1-ylamino)-quinolin-5-yl]-N-methyl-benzenesulfonamide]	13.5	
COc1ccc2c(c1)C(Nc1ccc3c(NCc4cc(F)cc(F)c4)cccc3n1)CC2 (single isomer, unassigned; (+)) [Example 35, (+)-N5-(3,5-Difluoro-benzyl)-N2-(6-methoxy-indan-1-yl)-quinoline-2,5-diamine]	7.81	
O=S(=O)(Nc1cccc2nc(N[C@@H]3CCc4ccccc43)ccc12)c1cc(F)cc(F)c1 [Example 11, 3,5-Difluoro-N-[2-((R)-indan-1-ylamino)-quinolin-5-yl]-benzenesulfonamide]	5.86	
c1ccc2c(c1)CC[C@H]2Nc1ccc2c(-c3cccc4[nH]ccc34)cccc2n1 [Example 74, (R)-Indan-1-yl-[5-(1H-indol-4-yl)-quinolin-2-yl]-amine]	41.7	
COc1ccc2c(c1)C(Nc1ccc3c(NS(=O)(=O)c4cc(F)c(F)c(F)c4)cccc3n1)CC2 (single isomer, unassigned; (+)) [Example 20, (+)-3,4,5-Trifluoro-N-[2-(6-methoxy-indan-1-ylamino)-quinolin-5-yl]-benzenesulfonamide]	18.1	
CN(C)CCOc1ccccc1CNc1cccc2nc(N[C@@H]3CCc4ccccc43)ccc12 [Example 64, N5-[2-(2-Dimethylamino-ethoxy)-benzyl]-N2-(R)-indan-1-yl-quinoline-2,5-diamine]	6.03	
COc1cccc2c1C(Nc1ccc3c(NS(=O)(=O)c4cccc5c4ccn5C)cccc3n1)CC2 (racemic) [Example 61, rac-1-Methyl-1H-indole-4-sulfonic acid [2-(7-methoxy-indan-1-ylamino)-quinolin-5-yl]-amide]	4.66	
N=C(c1ccccc1)c1cccc2nc(N[C@@H]3CCc4ccccc43)ccc12 [Example 84, [5-(Imino-phenyl-methyl)-quinolin-2-yl]-(R)-indan-1-yl-amine]	17.1	
